Test results reported in ChEMBL document CHEMBL1134382, “Estimation of binding affinities for selective thrombin inhibitors via Monte Carlo simulations” (J Med Chem, 2001).
pKi: −log10 of the molar value.

Target: Prothrombin (Homo sapiens, UniProt P00734)
Assay: Binding affinity was determined against human thrombin

Row | pKi | SMILES
1 | 7.96 | CS(=O)(=O)N1CCN(C(=O)[C@H](Cc2ccc(C(N)NN)cc2)NS(=O)(=O)c2ccc3ccccc3c2)CC1 (stereo partly specified)
2 | 5.48 | CCOC(=O)N1CCN(C(=O)[C@H](Cc2ccc(C(N)NN)cc2)NS(=O)(=O)c2ccc3ccccc3c2)CC1 (stereo partly specified)
3 | 9.42 | CN(C(=O)[C@H](Cc1ccc(C(N)NN)cc1)NS(=O)(=O)c1ccc2ccccc2c1)C1CCCC1 (stereo partly specified)
4 | 9.92 | CN(C(=O)[C@H](Cc1ccc(C(N)NN)cc1)NS(=O)(=O)c1ccc2c(c1)CCCC2)C1CCCC1 (stereo partly specified)
5 | 8.10 | CN(C(=O)[C@H](Cc1ccc(C(N)NN)cc1)NS(=O)(=O)c1cccc2ccccc12)C1CCCC1 (stereo partly specified)
6 | 8.48 | CN(C(=O)[C@H](Cc1ccc(CCN)cc1)NS(=O)(=O)c1ccc2ccccc2c1)C1CCCC1

Row | SMILES | pKi
7 | CN(C)c1cccc2c(S(=O)(=O)N[C@@H](Cc3ccc(C(N)NN)cc3)C(=O)N(C)C3CCCC3)cccc12 (stereo partly specified) | 9.52
8 | CN(C(=O)[C@H](Cc1ccc(C(N)NN)cc1)NS(=O)(=O)c1ccc2c(c1)CCCCC2)C1CCCC1 (stereo partly specified) | 10.35
9 | CN(C(=O)[C@H](Cc1ccc(C(N)NN)cc1)NS(=O)(=O)c1cccc2c1CCCC2)C1CCCC1 (stereo partly specified) | 8.42
10 | CN(C(=O)[C@H](Cc1ccc(C(N)NN)cc1)NS(=O)(=O)Cc1ccccc1)C1CCCC1 (stereo partly specified) | 7.74
11 | CN(C(=O)[C@H](Cc1ccc(C(N)NN)cc1)NS(=O)(=O)c1ccc2cc3ccccc3cc2c1)C1CCCC1 (stereo partly specified) | 10.00

Target: Prothrombin (Bos taurus, UniProt P00735)
Assay: Binding affinity was determined against bovine thrombin.

Row | pKi | SMILES
12 | 7.28 | NC(N)c1ccc(C[C@H](NS(=O)(=O)c2ccc3ccccc3c2)C(=O)N2CCCCCC2)cc1
13 | 6.61 | CN(C(=O)[C@H](Cc1ccc(C(N)NN)cc1)NS(=O)(=O)c1ccc2ccccc2c1)C1CC1 (stereo partly specified)
14 | 5.36 | NNC(N)c1ccc(C[C@@H](NC(=O)CNS(=O)(=O)c2ccc3ccccc3c2)C(=O)N2CCCCC2)cc1 (stereo partly specified)
15 | 8.82 | NNC(N)c1ccc(C[C@H](NS(=O)(=O)c2ccc3ccccc3c2)C(=O)N2CCCCCC2)cc1 (stereo partly specified)
16 | 8.19 | NC(N)c1ccc(C[C@@H](NC(=O)CNS(=O)(=O)c2ccc3ccccc3c2)C(=O)N2CCCCC2)cc1
17 | 8.96 | CN(C(=O)[C@H](Cc1ccc(C(N)NN)cc1)NS(=O)(=O)c1ccc2ccccc2c1)C1CCCC1 (stereo partly specified)
18 | 7.34 | CNC(N)c1ccc(C[C@H](NS(=O)(=O)c2ccc3ccccc3c2)C(=O)N2CCCCCC2)cc1 (stereo partly specified)
19 | 7.39 | CCCCN(C)C(=O)[C@H](Cc1ccc(C(N)NN)cc1)NS(=O)(=O)c1ccc2ccccc2c1 (stereo partly specified)
20 | 5.27 | CNC(N)c1ccc(C[C@@H](NC(=O)CNS(=O)(=O)c2ccc3ccccc3c2)C(=O)N2CCCCC2)cc1 (stereo partly specified)
21 | 6.82 | CN(C(=O)[C@H](Cc1ccc(C(N)NN)cc1)NS(=O)(=O)c1ccc2ccccc2c1)C1CCCCC1 (stereo partly specified)
